Measured values taken from ChEMBL document CHEMBL3885881, “DrugMatrix”.

Species: Rattus norvegicus
Assay: DrugMatrix - Regimen: Daily Repeat
Assay type: toxicity, organism-based, Sprague-Dawley
Design: regimen Daily Repeat, gender Male, age 6-8 weeks
Details: in vivo, sc, route subcutaneous, […]; for ABSOLUTE BASOPHIL / ABSOLUTE EOSINOPHIL / ABSOLUTE LYMPHOCYTE / ABSOLUTE MONOCYTE / ABSOLUTE SEGMENTED NEUTROPHIL / BASOPHIL / EOSINOPHIL / ERYTHROCYTE COUNT / HEMATOCRIT / HEMOGLOBIN / LEUKOCYTE COUNT / LYMPHOCYTE / MEAN CORPUSCULAR HEMOGLOBIN / MEAN CORPUSCULAR HEMOGLOBIN CONCENTRATION / MEAN CORPUSCULAR VOLUME / MONOCYTE / NEUTROPHIL / NUCLEATED RED BLOOD CELLS / PLATELET COUNT: tissue Blood; for ALANINE AMINOTRANSFERASE / ALBUMIN / ALKALINE PHOSPHATASE / ASPARTATE AMINOTRANSFERASE / BLOOD UREA NITROGEN / CARBON DIOXIDE / CHLORIDE / CHOLESTEROL / CREATINE PHOSPHOKINASE / CREATININE / GLUCOSE / LACTATE DEHYDROGENASE / LIPASE / PHOSPHORUS / POTASSIUM / SODIUM / TOTAL BILIRUBIN / TOTAL PROTEIN / URIC ACID: tissue Plasma
[1] = 0 mg/kg, 72 h, dose level Control, time 3 day
[2] = 0 mg/kg, 120 h, dose level Control, time 5 day
[3] = 29 mg/kg, 72 h, dose level Low, time 3 day

Structure (SMILES): Nc1nc2c(ncn2CCC(CO)CO)c(=O)[nH]1 [PENCICLOVIR]
- ABSOLUTE BASOPHIL [1]: 0 CELLS/uL
- ABSOLUTE EOSINOPHIL [1]: 42.67 CELLS/uL
- ABSOLUTE LYMPHOCYTE [1]: 10202 CELLS/uL
- ABSOLUTE MONOCYTE [1]: 261.5 CELLS/uL
- ABSOLUTE SEGMENTED NEUTROPHIL [1]: 2193.83 CELLS/uL
- BASOPHIL [1]: 0%
- EOSINOPHIL [1]: 0.33%
- ERYTHROCYTE COUNT [1]: 5.63 x10E6/uL
- HEMATOCRIT [1]: 35.35%
- HEMOGLOBIN [1]: 13.07 G/DL
- LEUKOCYTE COUNT [1]: 12.7 x10E3/uL
- LYMPHOCYTE [1]: 81.17%
- MEAN CORPUSCULAR HEMOGLOBIN [1]: 23.23 pg
- MEAN CORPUSCULAR HEMOGLOBIN CONCENTRATION [1]: 36.97 G/DL
- MEAN CORPUSCULAR VOLUME [1]: 62.82 fL
- MONOCYTE [1]: 2%
- NEUTROPHIL [1]: 16.5%
- NUCLEATED RED BLOOD CELLS [1]: 0 /100WBC
- PLATELET COUNT [1]: 1180.33 x10E3/uL
- ALANINE AMINOTRANSFERASE [1]: 48.67 u/L
- ALBUMIN [1]: 4.08 G/DL
- ALKALINE PHOSPHATASE [1]: 360.67 u/L
- ASPARTATE AMINOTRANSFERASE [1]: 85.5 u/L
- BLOOD UREA NITROGEN [1]: 17.83 mg/dL
- CARBON DIOXIDE [1]: 26.17 mmol/L
- CHLORIDE [1]: 101.83 MEQ/L
- CHOLESTEROL [1]: 71 mg/dL
- CREATINE PHOSPHOKINASE [1]: 515.17 u/L
- CREATININE [1]: 0.22 mg/dL
- GLUCOSE [1]: 192.5 mg/dL
- LACTATE DEHYDROGENASE [1]: 214.67 u/L
- LIPASE [1]: 8.5 u/L
- PHOSPHORUS [1]: 12.95 mg/dL
- POTASSIUM [1]: 6.39 MEQ/L
- SODIUM [1]: 142.38 MEQ/L
- TOTAL BILIRUBIN [1]: 0.18 mg/dL
- TOTAL PROTEIN [1]: 5.95 G/DL
- URIC ACID [1]: 1.83 mg/dL
- ABSOLUTE BASOPHIL [2]: 0 CELLS/uL
- ABSOLUTE EOSINOPHIL [2]: 188.5 CELLS/uL
- ABSOLUTE LYMPHOCYTE [2]: 12360.83 CELLS/uL
- ABSOLUTE MONOCYTE [2]: 64.33 CELLS/uL
- ABSOLUTE SEGMENTED NEUTROPHIL [2]: 1986.33 CELLS/uL
- BASOPHIL [2]: 0%
- EOSINOPHIL [2]: 1.33%
- ERYTHROCYTE COUNT [2]: 5.52 x10E6/uL
- HEMATOCRIT [2]: 35.82%
- HEMOGLOBIN [2]: 13.25 G/DL
- LEUKOCYTE COUNT [2]: 14.6 x10E3/uL
- LYMPHOCYTE [2]: 84.5%
- MEAN CORPUSCULAR HEMOGLOBIN [2]: 24.05 pg
- MEAN CORPUSCULAR HEMOGLOBIN CONCENTRATION [2]: 36.98 G/DL
- MEAN CORPUSCULAR VOLUME [2]: 64.97 fL
- MONOCYTE [2]: 0.5%
- NEUTROPHIL [2]: 13.67%
- NUCLEATED RED BLOOD CELLS [2]: 0 /100WBC
- PLATELET COUNT [2]: 1297.83 x10E3/uL
- ALANINE AMINOTRANSFERASE [2]: 51.17 u/L
- ALBUMIN [2]: 4.08 G/DL
- ALKALINE PHOSPHATASE [2]: 393.17 u/L
- ASPARTATE AMINOTRANSFERASE [2]: 111 u/L
- BLOOD UREA NITROGEN [2]: 18.17 mg/dL
- CARBON DIOXIDE [2]: 25 mmol/L
- CHLORIDE [2]: 105.17 MEQ/L
- CHOLESTEROL [2]: 65.5 mg/dL
- CREATINE PHOSPHOKINASE [2]: 911.5 u/L
- CREATININE [2]: 0.21 mg/dL
- GLUCOSE [2]: 183 mg/dL
- LACTATE DEHYDROGENASE [2]: 189 u/L
- LIPASE [2]: 8.33 u/L
- PHOSPHORUS [2]: 12.78 mg/dL
- POTASSIUM [2]: 6.05 MEQ/L
- SODIUM [2]: 144.57 MEQ/L
- TOTAL BILIRUBIN [2]: 0.25 mg/dL
- TOTAL PROTEIN [2]: 5.83 G/DL
- URIC ACID [2]: 1.58 mg/dL
- ABSOLUTE BASOPHIL [3]: 0 CELLS/uL
- ABSOLUTE EOSINOPHIL [3]: 232.67 CELLS/uL
- ABSOLUTE LYMPHOCYTE [3]: 11739.33 CELLS/uL
- ABSOLUTE MONOCYTE [3]: 92.67 CELLS/uL
- ABSOLUTE SEGMENTED NEUTROPHIL [3]: 1668.67 CELLS/uL
- BASOPHIL [3]: 0%
- EOSINOPHIL [3]: 1.67%
- ERYTHROCYTE COUNT [3]: 5.23 x10E6/uL
- HEMATOCRIT [3]: 33.7%
- HEMOGLOBIN [3]: 12.47 G/DL
- LEUKOCYTE COUNT [3]: 13.73 x10E3/uL
- LYMPHOCYTE [3]: 85.67%
- MEAN CORPUSCULAR HEMOGLOBIN [3]: 23.87 pg
- MEAN CORPUSCULAR HEMOGLOBIN CONCENTRATION [3]: 36.97 G/DL
- MEAN CORPUSCULAR VOLUME [3]: 64.5 fL
- MONOCYTE [3]: 0.67%
- NEUTROPHIL [3]: 12%
- NUCLEATED RED BLOOD CELLS [3]: 0 /100WBC
- PLATELET COUNT [3]: 1318 x10E3/uL
- ALANINE AMINOTRANSFERASE [3]: 47 u/L
- ALBUMIN [3]: 4.03 G/DL
- ALKALINE PHOSPHATASE [3]: 451.67 u/L
- ASPARTATE AMINOTRANSFERASE [3]: 88.67 u/L
- BLOOD UREA NITROGEN [3]: 15 mg/dL
- CARBON DIOXIDE [3]: 28 mmol/L
- CHLORIDE [3]: 104.67 MEQ/L
- CHOLESTEROL [3]: 64 mg/dL
- CREATINE PHOSPHOKINASE [3]: 727.67 u/L
- CREATININE [3]: 0.21 mg/dL
- GLUCOSE [3]: 162.33 mg/dL
- LACTATE DEHYDROGENASE [3]: 101 u/L
- LIPASE [3]: 8.33 u/L
- PHOSPHORUS [3]: 13 mg/dL
- POTASSIUM [3]: 6.56 MEQ/L
- SODIUM [3]: 146.33 MEQ/L
- TOTAL BILIRUBIN [3]: 0.2 mg/dL
- TOTAL PROTEIN [3]: 5.9 G/DL
- URIC ACID [3]: 1.7 mg/dL
